# Molecular target: T1, STING (Homo sapiens, UniProt Q86WV6, G230A/H232R/R293Q/R71H)
# T1 construct: host or cells: THP1-Dual KO-IFNAR2 cells
# Assay: STING reporter assay: luciferase reporter activity in THP1-Dual KO-IFNAR2 cells stimulated with 2′3′cGAMP
# Type: cell-based
# Settings: 15 μM 2′3′cGAMP, 24h, read-out: hSTING EC50
# Experimental: STING pathway activation by the compounds described herein was measured using THP 1-Dual™ cells (KO-IFNAR2).
# THP1-Dual™ KO-IFNAR2 Cells (obtained from invivogen) were maintained in RPMI, 10% FCS, 5 ml P/S, 2 mM L-glut, 10 mM Hepes, and 1 mM sodium pyruvate. Compounds were spotted in empty 384 well tissue culture plates (Greiner 781182) by Echo for a final concentration of 0.0017-100 μM. Cells were plated into the TC plates at 40 μL per well, 2×10E6 cells/mL. For activation with STING ligand, 2′3′cGAMP (MW 718.38, obtained from Invivogen), was prepared in Optimem media.
# The following solutions were prepared for each 1×384 plate: • Solution A: 2 mL Optimem with one of the following stimuli: • 60 μL of 10 mM 2′3′cGAMP→150 μM stock • Solution B: 2 mL Optimem with 60 μL Lipofectamine 2000→Incubate 5 min at RT
# 2 mL of solution A and 2 ml Solution B was mixed and incubated for 20 min at room temperature (RT). 20 μL of transfection solution (A+B) was added on top of the plated cells, with a final 2′3′cGAMP concentration of 15 μM. The plates were then centrifuged immediately at 340 g for 1 minute, after which they were incubated at 37° C., 5% CO2, >98% humidity for 24h. Luciferase reporter activity was then measured. EC50 values were calculated by using standard methods known in the art.
# Luciferase reporter assay: 10 μL of supernatant from the assay was transferred to white 384-plate with flat bottom and squared wells. One pouch of QUANTI-Luc™ Plus was dissolved in 25 mL of water. 100 μL of QLC Stabilizer per 25 mL of QUANTI-Luc™ Plus solution was added. 50 μL of QUANTI-Luc™ Plus/QLC solution per well was then added. Luminescence was measured on a Platereader (e.g., Spectramax I3X (Molecular Devices GF3637001)).
# Luciferase reporter activity was then measured. EC50 values were calculated by using standard methods known in the art.
# T1 sequence (Q86WV6 whole entry R71H/G230A/H232R/R293Q): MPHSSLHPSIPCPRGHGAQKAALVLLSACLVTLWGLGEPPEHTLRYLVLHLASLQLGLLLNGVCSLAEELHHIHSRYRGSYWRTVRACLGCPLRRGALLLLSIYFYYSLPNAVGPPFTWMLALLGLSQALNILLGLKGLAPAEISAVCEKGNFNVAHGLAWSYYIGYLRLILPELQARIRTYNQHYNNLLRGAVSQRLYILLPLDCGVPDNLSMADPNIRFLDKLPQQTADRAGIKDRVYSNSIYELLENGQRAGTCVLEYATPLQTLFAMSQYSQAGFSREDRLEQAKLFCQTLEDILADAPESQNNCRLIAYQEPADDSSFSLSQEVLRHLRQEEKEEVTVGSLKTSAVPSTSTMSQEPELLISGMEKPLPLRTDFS
row,Structure (SMILES),EC50 [nM]
1,"CCC(=O)Nc1c[nH]c2ccc(-c3cnn(-c4ccc(CC(F)(F)F)cc4)c3)cc12 [Compound 102, N-(5-(1-(4-(2,2,2-trifluoroethyl)phenyl)-1H-pyrazol-4-yl)-1H-indol-3-yl)propionamide]",200 to 1000
2,"CCC(=O)Nc1c[nH]c2ccc(-c3cnn(-c4ccc(COC)cc4)c3)cc12 [Compound 104, N-(5-(1-(4-(methoxymethyl)phenyl)-1H-pyrazol-4-yl)-1H-indol-3-yl)propionamide]",200 to 1000
3,"CCC(=O)Nc1c[nH]c2ccc(-c3cnn(-c4ccc(C(F)(F)F)cn4)c3)cc12 [Compound 105, N-(5-(1-(5-(trifluoromethyl)pyridin-2-yl)-1H-pyrazol-4-yl)-1H-indol-3-yl)propionamide]",200 to 1000
4,"CCc1ccc(-n2cc(-c3ccc4[nH]cc(NC(=O)CCC#N)c4c3)cn2)cc1 [Compound 107, 3-cyano-N-(5-(1-(4-ethylphenyl)-1H-pyrazol-4-yl)-1H-indol-3-yl)propanamide]",200 to 1000
5,"CCc1ccc(-n2cc(-c3ccc4[nH]cc(NC(=O)C5CCN(C(=O)OC(C)(C)C)C5)c4c3)cn2)cc1 (centres unmarked) [Compound 108, tert-butyl 3-((5-(1-(4-ethylphenyl)-1H-pyrazol-4-yl)-1H-indol-3-yl)carbamoyl)pyrrolidine-1-carboxylate]",200 to 1000
6,"O=C(Nc1c[nH]c2ccc(-c3cnn(-c4ccc(C(F)(F)F)cc4)c3)cc12)C1CCC1 [Compound 111, N-(5-(1-(4-(trifluoromethyl)phenyl)-1H-pyrazol-4-yl)-1H-indol-3-yl)cyclobutanecarboxamide]",200 to 1000
7,"CCc1ccc(-n2cc(-c3ccc4[nH]cc(NC(=O)C5CCCC5)c4c3)cn2)cc1 [Compound 115, N-(5-(1-(4-ethylphenyl)-1H-pyrazol-4-yl)-1H-indol-3-yl)cyclopentanecarboxamide]",40 to 200
8,"CCC(=O)Nc1c[nH]c2ccc(-c3cnn(-c4ccc(Cl)cc4)c3)cc12 [Compound 119, N-(5-(1-(4-chlorophenyl)-1H-pyrazol-4-yl)-1H-indol-3-yl)propionamide]",200 to 1000
9,"CCC(=O)Nc1c[nH]c2ccc(-c3cnn(-c4ccc(CC)nc4)c3)cc12 [Compound 120, N-(5-(1-(6-ethylpyridin-3-yl)-1H-pyrazol-4-yl)-1H-indol-3-yl)propionamide]",1000 to 5000
10,"CCc1ccc(-n2cc(-c3ccc4[nH]cc(NC(=O)CN(C)C)c4c3)cn2)cc1 [Compound 125, 2-(dimethylamino)-N-(5-(1-(4-ethylphenyl)-1H-pyrazol-4-yl)-1H-indol-3-yl)acetamide]",5000 to 100000
11,"CCC(=O)Nc1c[nH]c2ccc(-c3cnn(-c4cccc(CC)c4)c3)cc12 [Compound 128, N-(5-(1-(3-ethylphenyl)-1H-pyrazol-4-yl)-1H-indol-3-yl)propionamide]",200 to 1000
12,"CCc1ccc(-n2cc(-c3ccc4[nH]cc(NC(=O)C5CN(C)C5)c4c3)cn2)cc1 [Compound 129, N-(5-(1-(4-ethylphenyl)-1H-pyrazol-4-yl)-1H-indol-3-yl)-1-methylazetidine-3-carboxamide]",5000 to 100000
13,"CCc1ccc(-n2cc(-c3ccc4[nH]cc(NC(=O)/C=C/COC)c4c3)cn2)cc1 [Compound 130, (E)-N-(5-(1-(4-ethylphenyl)-1H-pyrazol-4-yl)-1H-indol-3-yl)-4-methoxybut-2-enamide]",200 to 1000
14,"CCc1ccc(-n2cc(-c3ccc4[nH]cc(NC(=O)C(C)O)c4c3)cn2)cc1 (centres unmarked) [Compound 132, N-(5-(1-(4-ethylphenyl)-1H-pyrazol-4-yl)-1H-indol-3-yl)-2-hydroxypropanamide]",200 to 1000
15,"CCC(=O)Nc1c[nH]c2ccc(-c3ccc(CN4CCOCC4)s3)cc12 [Compound 135, N-(5-(5-(morpholinomethyl)thiophen-2-yl)-1H-indol-3-yl)propionamide]",5000 to 100000

# More lines, now with the values ahead:
row,EC50 [nM],Structure (SMILES)
1,200 to 1000,"CCC(=O)Nc1c[nH]c2ccc(-c3cnn(-c4ccc(C#N)cc4)c3)cc12 [Compound 101, N-(5-(1-(4-cyanophenyl)-1H-pyrazol-4-yl)-1H-indol-3-yl)propionamide]"
2,200 to 1000,"CCC(=O)Nc1c[nH]c2cc(F)c(-c3cnn(-c4ccc(CC)cc4)c3)cc12 [Compound 103, N-(5-(1-(4-ethylphenyl)-1H-pyrazol-4-yl)-6-fluoro-1H-indol-3-yl)propionamide]"
3,40 to 200,"CCc1ccc(-n2cc(-c3ccc4[nH]cc(NC(=O)COC)c4c3)cn2)cc1 [Compound 106, N-(5-(1-(4-ethylphenyl)-1H-pyrazol-4-yl)-1H-indol-3-yl)-2-methoxyacetamide]"
4,200 to 1000,"CCC(=O)Nc1c[nH]c2ccc(-c3cnn(-c4ccc(C(F)(F)F)c(C)c4)c3)cc12 [Compound 109, N-(5-(1-(3-methyl-4-(trifluoromethyl)phenyl)-1H-pyrazol-4-yl)-1H-indol-3-yl)propionamide]"
5,40 to 200,"CCC(=O)Nc1c[nH]c2ccc(-c3cnn(-c4ccc(OCC(F)(F)F)cc4)c3)cc12 [Compound 110, N-(5-(1-(4-(2,2,2-trifluoroethoxy)phenyl)-1H-pyrazol-4-yl)-1H-indol-3-yl)propionamide]"
6,200 to 1000,"CCc1ccc(-n2cc(-c3ccc4[nH]cc(NC(=O)C5COC5)c4c3)cn2)cc1 [Compound 112, N-(5-(1-(4-ethylphenyl)-1H-pyrazol-4-yl)-1H-indol-3-yl)oxetane-3-carboxamide]"
7,40 to 200,"CCc1ccc(-n2cc(-c3ccc4[nH]cc(NC(=O)CC(C)(C)O)c4c3)cn2)cc1 [Compound 113, N-(5-(1-(4-ethylphenyl)-1H-pyrazol-4-yl)-1H-indol-3-yl)-3-hydroxy-3-methylbutanamide]"
8,200 to 1000,"CCc1ccc(-n2cc(-c3ccc4[nH]cc(NC(=O)C(C)NC(=O)OC(C)(C)C)c4c3)cn2)cc1 (centres unmarked) [Compound 114, tert-butyl (1-((5-(1-(4-ethylphenyl)-1H-pyrazol-4-yl)-1H-indol-3-yl)amino)-1-oxopropan-2-yl)carbamate]"
9,5000 to 100000,"CCC(=O)Nc1c[nH]c2ccc(-c3ccnn3-c3ccc(C(F)(F)F)cc3)cc12 [Compound 116, N-(5-(1-(4-(trifluoromethyl)phenyl)-1H-pyrazol-5-yl)-1H-indol-3-yl)propionamide]"
10,1000 to 5000,"CCC(=O)Nc1c[nH]c2ccc(-c3ccn(-c4ccc(C(F)(F)F)cc4)n3)cc12 [Compound 117, N-(5-(1-(4-(trifluoromethyl)phenyl)-1H-pyrazol-3-yl)-1H-indol-3-yl)propionamide]"
11,1000 to 5000,"CCC(=O)Nc1c[nH]c2ccc(-c3ccc(-c4cnn(C(C)C)c4)cc3)cc12 [Compound 118, N-(5-(4-(1-isopropyl-1H-pyrazol-4-yl)phenyl)-1H-indol-3-yl)propionamide]"
12,200 to 1000,"CCc1ccc(-n2cc(-c3ccc4[nH]cc(NC(=O)C5CC(=O)N5)c4c3)cn2)cc1 (centres unmarked) [Compound 121, N-(5-(1-(4-ethylphenyl)-1H-pyrazol-4-yl)-1H-indol-3-yl)-4-oxoazetidine-2-carboxamide]"
13,200 to 1000,"CCc1ccc(-n2cc(-c3ccc4[nH]cc(NC(=O)C5CCCO5)c4c3)cn2)cc1 (centres unmarked) [Compound 122, N-(5-(1-(4-ethylphenyl)-1H-pyrazol-4-yl)-1H-indol-3-yl)tetrahydrofuran-2-carboxamide]"
14,40 to 200,"CCc1ccc(-n2cc(-c3ccc4[nH]cc(NC(=O)C5CCCCC5)c4c3)cn2)cc1 [Compound 123, N-(5-(1-(4-ethylphenyl)-1H-pyrazol-4-yl)-1H-indol-3-yl)cyclohexanecarboxamide]"
15,40 to 200,"CCc1ccc(-n2cc(-c3ccc4[nH]cc(NC(=O)C5CCC5)c4c3)cn2)cc1 [Compound 124, N-(5-(1-(4-ethylphenyl)-1H-pyrazol-4-yl)-1H-indol-3-yl)cyclobutanecarboxamide]"
16,200 to 1000,"CCc1ccc(-n2cc(-c3ccc4[nH]cc(NC(=O)CO)c4c3)cn2)cc1 [Compound 126, N-(5-(1-(4-ethylphenyl)-1H-pyrazol-4-yl)-1H-indol-3-yl)-2-hydroxyacetamide]"
17,200 to 1000,"CCC(=O)Nc1c[nH]c2ccc(-c3cnn(Cc4cccc(C(F)(F)F)c4)c3)cc12 [Compound 127, N-(5-(1-(3-(trifluoromethyl)benzyl)-1H-pyrazol-4-yl)-1H-indol-3-yl)propionamide]"
18,5000 to 100000,"CCC(=O)Nc1c[nH]c2ccc(N3CCN(c4ccccc4)CC3)cc12 [Compound 131, N-(5-(4-phenylpiperazin-1-yl)-1H-indol-3-yl)propionamide]"
19,40 to 200,"CCc1ccc(-n2cc(-c3ccc4[nH]cc(NC(=O)C(C)C)c4c3)cn2)cc1 [Compound 133, N-(5-(1-(4-ethylphenyl)-1H-pyrazol-4-yl)-1H-indol-3-yl)isobutyramide]"
20,40 to 200,"CCc1ccc(-n2cc(-c3ccc4[nH]cc(NC(C)=O)c4c3)cn2)cc1 [Compound 134, N-(5-(1-(4-ethylphenyl)-1H-pyrazol-4-yl)-1H-indol-3-yl)acetamide]"

# From patent US20230365553A1, “COMPOUNDS AND COMPOSITIONS FOR TREATING CONDITIONS ASSOCIATED WITH STING ACTIVITY” (IFM Due, Inc., priority 2020, published 2023)
